Measured values: PMC8348142, “Antimicrobial Peptide Modifications against Clinically Isolated Antibiotic-Resistant Salmonella” (Molecules, 2021)
Converted amounts (≈) assume the structure as drawn. Marks after values point to notes of the source that are not given here. Square brackets hold non-standard residues; d marks the D form. Ends that are not written are not given here. Peptide text beside a SMILES is read from it.

What was measured:
Format in all cases: cell-based
[1] = test system: clinical Salmonella isolates; assay: MBC, drop plate method, and MBC/MIC mode of action; conditions: for GM of MBC: geometric mean over 12 clinical Salmonella isolates; for MBC: drop plate on MHA from MIC plate, 37 °C, 18 h, thrice
Description: (§1) All 12 isolates of Salmonella used in this study were clinical isolates and anonymous left-overs from laboratory diagnoses. They were maintained in a 20% glycerol (Sigma-Aldrich) stock at −80 °C and further cultured on Mueller-Hinton agar (MHA, Oxoid, Hampshire, UK) at 37 °C for 18 h to obtain single colonies for antimicrobial assays. This study was approved by the Ethics Committee of the Faculty of Tropical Medicine (Mahidol University, Bangkok, Thailand; MUTM-EXMPT 2017-007).
The plate derived from the MIC assay was immediately tested for the MBC using a drop plate method. A volume of 10 µL of the culture from individual wells at MIC, 2MIC, and 4MIC was dropped on MHA plates. […] The experiment was thrice performed.
In order to determine whether the peptides have bacteriostatic or bactericidal activity, a ratio of MBC to MIC (MBC/MIC) was applied. The ratio >4 was indicative of bacteriostatic peptide, and ≤4 was inferred as bactericidal peptide.

[2] = test system: clinical Salmonella isolates; assay: MIC, broth microdilution; conditions: MHB, 5 × 10^5 CFU/mL, 37 °C, 18 h, duplicate
Description: as §1
MIC was determined using the broth microdilution method described by Hancock with some modifications. Briefly, bacterial colonies grown from the MHA were prepared in MHB (Oxoid) as a 0.5 McFarland suspension (which is equal to 1 × 10^8 CFU/mL), and was further 200-fold diluted by the MHB (5 × 10^5 CFU/mL). The bacterial suspension (50 µL) was mixed with 2-fold serial dilutions of peptide (5.5 µL) achieving final concentrations of 256 to 1 µM using a round-bottom polypropylene (PP) 96-well plate (Greiner Bio-One). The plate was incubated at 37 °C for 18 h including incubating peptide free-bacteria as positive growth control, and MHB as negative growth control. After the incubation, the lowest concentration with no visible growth was defined as a MIC value. The assay was performed in a duplicate manner.

sheep red blood cells = assay: Hemolytic activity assay; conditions: for HC50 (hemolytic concentration 50): concentration inducing 50% hemolysis of sRBCs, nonlinear regression, unit (µM); for percent hemolysis: 2% sRBCs in PBS, 37 °C, 1 h, OD540, triplicate mean; for concentration required for the initiation of hemolysis: sRBCs, 60 min, 256–1 µM tested
Description: The peptide toxicity to the mammalian system was screened based on the hemolytic test by measuring the hemoglobin released from ruptured red blood cells (RBCs). In this study, sheep RBCs (sRBCs) were employed. They were thrice washed and prepared as a suspension in phosphate-buffered saline (PBS, Oxoid). A suspension of 2% sRBCs was incubated with 2-fold serial dilutions of peptide (final concentrations; 256 to 1 µM in a total volume of 200 µL) at 37 °C for 1 h. The solutions of 0.1% (final concentration) Triton X-100 (Sigma-Aldrich) and PBS containing the peptide solvent were used instead of the peptides as the controls of hemolysis at 100% and 0%, respectively. Thereafter, the post-incubated suspensions were centrifuged (1000× g, 3 min) to pelletize residual sRBCs. The supernatants were then transferred into a flat-bottom PS 96-well plate and were measured the absorbance at 540 nm (OD540) by a microplate reader. The test was conducted in triplicate and the mean OD540 was used to calculate the hemolysis (%) as; ((OD540 (peptide) − OD540 (PBS + peptide solvent))/(OD540 (0.1% Triton X-100) − OD540 (PBS + peptide solvent))) × 100. The hemolytic concentration 50 (HC50), a concentration inducing 50% hemolysis, was determined.
The GraphPad Prism version 7.00 (GraphPad Software, La Jolla, CA, USA) was applied for all statistical analyses and data visualizations. Replicate quantitative results were calculated and shown as mean ± SD, unless otherwise specified. The HC50 values were determined using nonlinear regression analysis. The paired t-test and repeated measures one-way ANOVA with Tukey’s multiple comparison test were applied to compare between 2 groups and among 3 or more groups, respectively. The comparisons were considered as a statistically significant difference when a p-value < 0.05.

[3] = isolate 5 (Enteritidis, blood; resistant AMP, SXT, KZ)
[4] = isolate 7 (Typhimurium, blood; resistant AMP, CN, TE, NA, SXT)
[5] = isolate 11 (I 1,4:i:-, blood; resistant AMP, TE, NA, SXT, C)
[6] = isolate 18 (Stanley, urine; resistant TE, SXT, C)
[7] = isolate 26 (Typhimurium, urine; resistant TZP, TE, NA)
[8] = isolate 27 (Typhimurium, stool; resistant AMP, TE, NA, SXT, CIP)
[9] = isolate 55 (Typhimurium, blood; resistant AMP, SXT, C, TE)
[10] = isolate 61 (Enteritidis, blood; resistant AMP, TE, NA, SXT)
[11] = isolate 69 (Typhimurium, stool; resistant AMP)
[12] = isolate 76 (Enteritidis, CSF; resistant NA)
[13] = isolate 78 (Enteritidis, blood; resistant TE, CIP, NA, SXT)
[14] = isolate 107 (Typhimurium, stool; susceptible)

Compound	GM of MBC [1] [µM]	MBC ([1]; isolate 5 (Enteritidis)) [µM]	MBC ([1]; isolate 7 (Typhimurium)) [µM]	MBC ([1]; isolate 11 (I 1,4:i:-)) [µM]	MBC ([1]; isolate 18 (Stanley)) [µM]	MBC ([1]; isolate 26 (Typhimurium)) [µM]	MBC ([1]; isolate 27 (Typhimurium)) [µM]	MBC ([1]; isolate 55 (Typhimurium)) [µM]	MBC ([1]; isolate 61 (Enteritidis)) [µM]	MBC ([1]; isolate 69 (Typhimurium)) [µM]	MBC ([1]; isolate 76 (Enteritidis)) [µM]	MBC ([1]; isolate 78 (Enteritidis)) [µM]	MBC ([1]; isolate 107 (Typhimurium)) [µM]	MIC [2, 3] [µM]	MIC [2, 4] [µM]	MIC [2, 5] [µM]	MIC [2, 6] [µM]	MIC [2, 7] [µM]	MIC [2, 8] [µM]	MIC [2, 9] [µM]	further results
CC[C@@H](C)[C@@H](NC(=O)[C@H](N)Cc1ccccc1)C(=O)N[C@H](CCCNC(=N)N)C(=O)N[C@H](CCCNC(=N)N)C(=O)N[C@@H](C(=O)N[C@H](C)C(=O)N[C@H](CCCNC(=N)N)C(=O)N[C@H](CC(C)C)C(=O)N[C@H](CC(C)C)C(=O)N[C@H](CCCNC(=N)N)C(=O)N[C@H](CCCNC(=N)N)C(=O)N[C@@H](C(=O)N[C@H](Cc1ccccc1)C(N)=O)[C@H](C)CC)[C@H](C)CC [dKn2-5R-NH2] (H-[dF][dI][dR][dR][dI][dA][dR][dL][dL][dR][dR][dI][dF]-NH2)	5.99	8 (≈ 13.8 µg/mL)	8 (≈ 13.8 µg/mL)	8 (≈ 13.8 µg/mL)	8 (≈ 13.8 µg/mL)	8 (≈ 13.8 µg/mL)	4 (≈ 6.92 µg/mL)	4 (≈ 6.92 µg/mL)	4 (≈ 6.92 µg/mL)	4 (≈ 6.92 µg/mL)	8 (≈ 13.8 µg/mL)	8 (≈ 13.8 µg/mL)	4 (≈ 6.92 µg/mL)	8 (≈ 13.8 µg/mL)	8 (≈ 13.8 µg/mL)	8 (≈ 13.8 µg/mL)	8 (≈ 13.8 µg/mL)	8 (≈ 13.8 µg/mL)	4 (≈ 6.92 µg/mL)	4 (≈ 6.92 µg/mL)	MIC [2, 10]: 4 µM (≈ 6.92 µg/mL); MIC [2, 11]: 4 µM (≈ 6.92 µg/mL); MIC [2, 12]: 8 µM (≈ 13.8 µg/mL); MIC [2, 13]: 8 µM (≈ 13.8 µg/mL); MIC [2, 14]: 4 µM (≈ 6.92 µg/mL); HC50 (hemolytic concentration 50) (sheep red blood cells): 199.20 µM; percent hemolysis (sheep red blood cells; peptide 1 µM): 0%; percent hemolysis (sheep red blood cells; peptide 2 µM): 0%; percent hemolysis (sheep red blood cells; peptide 4 µM): 0.4 * %; percent hemolysis (sheep red blood cells; peptide 8 µM): 0.5 * %; percent hemolysis (sheep red blood cells; peptide 16 µM): 0.9%; percent hemolysis (sheep red blood cells; peptide 32 µM): 2.5%; percent hemolysis (sheep red blood cells; peptide 64 µM): 8.7%; percent hemolysis (sheep red blood cells; peptide 128 µM): 23.6%; percent hemolysis (sheep red blood cells; peptide 256 µM): 65.6%; concentration required for the initiation of hemolysis (sheep red blood cells): 4 µM
FFFIRRIARLLRRIF-NH2 [2F-Kn2-5R-NH2]	5.66	4	4	4	8	8	8	8	4	4	8	8	4	4	4	4	8	8	8	8	MIC [2, 10]: 4 µM; MIC [2, 11]: 4 µM; MIC [2, 12]: 8 µM; MIC [2, 13]: 8 µM; MIC [2, 14]: 4 µM; HC50 (hemolytic concentration 50) (sheep red blood cells): 5.60 µM; percent hemolysis (sheep red blood cells; peptide 1 µM): 6.1%; percent hemolysis (sheep red blood cells; peptide 2 µM): 15%; percent hemolysis (sheep red blood cells; peptide 4 µM): 33.7 * %; percent hemolysis (sheep red blood cells; peptide 8 µM): 61.6 * %; percent hemolysis (sheep red blood cells; peptide 16 µM): 96.2%; percent hemolysis (sheep red blood cells; peptide 32 µM): 97.6%; percent hemolysis (sheep red blood cells; peptide 64 µM): 97.9%; percent hemolysis (sheep red blood cells; peptide 128 µM): 99.8%; percent hemolysis (sheep red blood cells; peptide 256 µM): 100%; concentration required for the initiation of hemolysis (sheep red blood cells): 1 µM
